This data set deals with colorectal tissue transcripts. The data set can be described thus: SAGE of normal, adenoma and cancer colorectal tissue (transcript tag counts). More on the design: species or system human. To be noted: for AD1 (SAGE tag count): adenoma library 1; for AD2 (SAGE tag count): adenoma library 2; for CA1 (SAGE tag count): cancer library 1; for CA2 (SAGE tag count): cancer library 2; for NC1 (SAGE tag count): normal colorectal tissue library 1; for NC2 (SAGE tag count): normal colorectal tissue library 2. The method in brief: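 SAGE libraries from two normal colonic epithelium samples, two colorectal adenomas (FAP patients, >70% neoplastic cells) and two colorectal cancers. Transcripts counted as 15-base 3′ tags from oligo(dT)-selected mRNA; repeated ditags, linkers and MHC-locus tags excluded before statistical library comparison.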

Experimental findings from patent US8029764B2, “Methods for detection of colorectal cancer” (The Johns Hopkins University, priority 2001, dated 2011) are described below.

With “TTCCGCGTTC (chemistry not fully specified)”, the “AD1 (SAGE tag count)” value amounted to 0, the “AD2 (SAGE tag count)” value was 0, the “CA1 (SAGE tag count)” value was determined as 2 and the “CA2 (SAGE tag count)” value is 2. Also, the “NC1 (SAGE tag count)” value is 5 and the “NC2 (SAGE tag count)” value is reported as 16.
With “TTCTGGTGCG (chemistry not fully specified)”, the “AD1 (SAGE tag count)” value came to 0, the “AD2 (SAGE tag count)” value came to 0, the “CA1 (SAGE tag count)” value was 1 and the “CA2 (SAGE tag count)” value turned out to be 0. For the same sequence, the “NC1 (SAGE tag count)” value was 8 and the “NC2 (SAGE tag count)” value is listed as 2.
As to “TTCTGTAGCC (chemistry not fully specified)”, the “AD1 (SAGE tag count)” value was determined as 4, the “AD2 (SAGE tag count)” value was determined as 2, the “CA1 (SAGE tag count)” value is 4 and the “CA2 (SAGE tag count)” value is listed as 2. The “NC1 (SAGE tag count)” value is 13 and the “NC2 (SAGE tag count)” value is reported as 23.
In the case of “TTGGACCTGG (chemistry not fully specified)”, the “AD1 (SAGE tag count)” value worked out at 7, the “AD2 (SAGE tag count)” value worked out at 18, the “CA1 (SAGE tag count)” value came out at 12 and the “CA2 (SAGE tag count)” value worked out at 16. Besides, the “NC1 (SAGE tag count)” value stood at 33 and the “NC2 (SAGE tag count)” value stood at 31.
For “TTGGGGTTTC (chemistry not fully specified)”, the “AD1 (SAGE tag count)” value was 50, the “AD2 (SAGE tag count)” value stood at 81, the “CA1 (SAGE tag count)” value is 67 and the “CA2 (SAGE tag count)” value was determined as 50. For the same sequence, the “NC1 (SAGE tag count)” value was 111 and the “NC2 (SAGE tag count)” value is given as 184.
For the sequence “TTTAACGGCC (chemistry not fully specified)”, the “AD1 (SAGE tag count)” value came out at 36, the “AD2 (SAGE tag count)” value turned out to be 35, the “CA1 (SAGE tag count)” value was determined as 11 and the “CA2 (SAGE tag count)” value was found to be 30. Besides, the “NC1 (SAGE tag count)” value was 93 and the “NC2 (SAGE tag count)” value is 67.
As to “TTTCCTCTCA (chemistry not fully specified)”, the “AD1 (SAGE tag count)” value turned out to be 6, the “AD2 (SAGE tag count)” value is given as 2, the “CA1 (SAGE tag count)” value is 4 and the “CA2 (SAGE tag count)” value came to 3. Moreover, the “NC1 (SAGE tag count)” value amounted to 21 and the “NC2 (SAGE tag count)” value turned out to be 8.
Take “TTTCTCGTCG (chemistry not fully specified)”: the “AD1 (SAGE tag count)” value came out at 2, the “AD2 (SAGE tag count)” value turned out to be 3, the “CA1 (SAGE tag count)” value was 0 and the “CA2 (SAGE tag count)” value is reported as 2. Further, the “NC1 (SAGE tag count)” value is on record as 10 and the “NC2 (SAGE tag count)” value was determined as 16.
“TTTGGTTTCA (chemistry not fully specified)”: the “AD1 (SAGE tag count)” value is given as 0, the “AD2 (SAGE tag count)” value amounted to 0, the “CA1 (SAGE tag count)” value is 0 and the “CA2 (SAGE tag count)” value was found to be 0. The “NC1 (SAGE tag count)” value is 2 and the “NC2 (SAGE tag count)” value stood at 13.
Take “TTTTCTGCAT (chemistry not fully specified)”: the “AD1 (SAGE tag count)” value stood at 1, the “AD2 (SAGE tag count)” value amounted to 0, the “CA1 (SAGE tag count)” value was 1 and the “CA2 (SAGE tag count)” value was 2. For the same sequence, the “NC1 (SAGE tag count)” value is recorded as 8 and the “NC2 (SAGE tag count)” value is 7.
For “TTTTTACTGA (chemistry not fully specified)”, the “AD1 (SAGE tag count)” value was 10, the “AD2 (SAGE tag count)” value turned out to be 10, the “CA1 (SAGE tag count)” value is listed as 8 and the “CA2 (SAGE tag count)” value amounted to 1. Also, the “NC1 (SAGE tag count)” value stood at 32 and the “NC2 (SAGE tag count)” value is recorded as 19.
